# In patent US12109184B2, “Personalized methods of treating cancer” (CANCER RESEARCH TECHNOLOGY LIMITED, priority 2020, dated 2024):
# Entries after “also recorded” stand apart in the source; their conditions may differ.
# Tests used:
# Assay type in all cases: cell-based
# [1] = tested on: MTAP-expressing HCT116 cells; experiment: Cell counting during cysteine starvation, MTAP-expressing HCT116; settings: −Cys with or without methionine
# Source text: [NT] Successfully transfected cells were selected with puromycin and grown as clonal colonies. Clones were selected based initially on MTA efflux measured by liquid chromatography mass spectrometry (LC-MS). Clones with greatest MTA efflux were selected, and methylthioadenosine phosphorylase knockout (MTAP-KO) was then confirmed by western blot. MTAP-KO HCT116 cells were transfected with pCMV-Hygro-MTAP and pCMV-Hygro-negative control vector, selected using hygromycin B, and grown as clonal colonies. Clones were selected based initially on MTA efflux measured by LC-MS. Clones with low MTA efflux were selected, then MTAP re-expression was confirmed by western blot. […] DAPI-stained cell nuclei were detected via microscopy. For experiments using spermine oxidase (SMOX) and polyamine oxidase (PAOX) inhibitors or MTOB, cells were pre-treated with stated concentrations for 16 hours in complete medium. After pre-treatment, cells were washed in PBS, and treatment was continued in complete or cysteine-free medium for stated times. After treatment was finished, cells were fixed and stained as described above. For experiments using MTA, polyamines, GPX4 and CSE inhibitors, treatment started at the same time as cysteine starvation. For experiments involving hypoxic conditions, cells were seeded in normoxic conditions and allowed to adhere for 24 hours before control and cysteine starvation medium was added and cells were immediately transferred either to a humidified cell culture incubator set to 37° C. in 20% O2 (normoxia), or a hypoxia chamber set to 37° C. in 1% O2 (hypoxia) for the stated times. Cells were fixed immediately and stained as described above.
# [2] = tested on: SW480 and MDA-MB-231 cells; experiment: Cell counting, rescue by cysteine precursors during cysteine starvation; settings: supplement at 0.8 mM
# Experimental: HCT116, SW480, MDA-MB-468, MDA-MB-231, AsPC-1, BxPC-3, CFPAC-1, MIAPaCa-2, PANC-1, Panc10.05, SW1990, U-251, LN-18, LN-229, T98G, U-343, A-172 cells were used. Cell lines were authenticated using Short Tandem Repeat (STR) profiling and tested for mycoplasma. Colorectal and breast cancer cell lines were grown in Dulbecco's Modified Eagle Medium (DMEM), pancreatic ductal adenocarcinoma (PDAC) cell lines were grown in Roswell Park Memorial institute (RPMI) 1640. All cell lines were supplemented with penicillin-streptomycin, amphotericin, 2 mM L-glutamine, and 10% fetal bovine serum (FBS). Cells were kept at 37° C. in 5% CO2 in a humidified cell culture incubator. A formulated medium lacking cysteine, cystine, methionine, and serine was used as a base for creating experimental media. The base medium formulation contained 0.2 mM L-histidine, 0.4 mM L-isoleucine, 0.4 mM L-leucine, 0.4 mM L-lysine, 0.2 mM L-phenylalanine, 0.4 mM L-threonine, 0.08 mM L-tryptophan, 0.4 mM L-valine, 0.2 mM L-arginine, 2 mM L-glutamine, 0.2 mM L-tyrosine, 0.4 mM L-alanine, 0.3 mM L-proline, 0.15 mM L-glutamic acid, 0.1 mM L-aspartic acid, 0.2 mM L-asparagine, and 0.4 mM glycine. The base medium was supplemented with 10% dialyzed FBS, penicillin-streptomycin, and amphotericin. To ensure an adequate supply of vitamin B6 (a crucial co-factor for de novo cysteine synthesis), base medium was supplemented with additional 20 μM vitamin B6. The control experimental medium was the base medium supplemented with 0.4 mM L-cysteine, 0.2 mM L-methionine, and 0.4 mM L-serine. The cysteine starvation (−Cys) experimental medium was base medium supplemented with 0.2 mM L-methionine and 0.4 mM L-serine.
# Cells were seeded at 6×10^4 cells per well into 24-well plates (triplicate wells per condition) in the relevant complete medium and adhered for a full 24-hour period. A ‘time-0’ plate was included to record the starting cell number to calculate relative cell numbers. Cells were washed once with phosphate-buffered saline (PBS) before receiving experimental medium containing or lacking the specified amino acids, metabolites, or drugs. At the stated time-points the medium was removed, cells were fixed in a 4% formalin-PBS solution. Cells were then washed and stored in PBS before staining with 4′,6-diamidino-2-phenylindole (DAPI)-Triton™ X100-PBS solution for 1 hour, followed by storage in PBS at 4° C. until further analysis. DAPI-stained cell nuclei were detected via microscopy.
# Homocysteine, cystathionine, glutathione, putrescine, spermine, spermidine, GPX4 inhibitor ML210, SMOX inhibitor MDL 72527, PAOX inhibitor diminazene aceturate, ferrostatin-1 and erastin were used. AMD1 inhibitor sardomozide/SAM486A, GPX4 inhibitor RSL3, and CSE inhibitor beta-cyano-L-alanine were used. […]
# [3] = tested on: breast, colorectal and pancreatic cancer cell lines; experiment: Cell counting in complete or cysteine-free medium, cell lines not given; settings: supplementation during cysteine starvation
# [4] = tested on: MDA-MB-231, PANC-1, and MIAPaCa-2 cells; experiment: CellROX assay on live cells, starvation-sensitive cell lines; settings: cysteine starved, MTAP deleted cells, 18 h
# Experimental: Cells were seeded as described above. Live cells were stained with Hoechst 33342 nuclear stain for 20 min. The medium was removed, and cells were stained in 100 μl medium containing CellTracker™ Green CMFDA Dye and Hoechst stain for 40 min. The cells were then washed with PBS, and 300 μl of the relevant experimental medium was added for 1 hour. Then, CellROX® Deep Red was spiked into the medium, and the cells were incubated for 40 min. The medium was removed, the cells were washed with PBS, and new relevant experimental medium including CellROX was added. The cells were imaged using an Operetta automated microscope platform set to 37° C. in 5% CO2 every hour for 16-24 hours. I
structure (smiles),measurement,setting,value
CSCC[C@H](N)C(=O)O [methionine],effect of presence of methionine during cysteine starvation,[1],advantageous
same,restoration of proliferation during cysteine starvation,[2],no rescue
same,rescue from cysteine starvation-induced cell death (summary in discussion),[3],unable to provide rescue; also recorded: did not
same,ROS levels (CellROX) in response to methionine concentration,[4],increased in a dose-dependent manner
